Test results as given in the NIST ThermoML archive (doi:10.1021/je800101v).
± gives the expanded uncertainty stated by the source.

Legend:
[1] = for surface tension liquid-gas: Ring tensiometer; for mass density: 101.33 kPa, Liquid
[2] = xn = mol fraction of the nth substance listed; conditions: Ring tensiometer

OCCO [1,2-ethanediol]
[1]
Conditions	surface tension liquid-gas [mN/m]
298.15 K	47.79 ± 0.68
303.15 K	47.57 ± 0.67
308.15 K	47.25 ± 0.67
313.15 K	47.1 ± 0.67
318.15 K	46.4 ± 0.66

OCCO [1,2-ethanediol] + CCCCCCO
[2], x2 = 0
Conditions	surface tension liquid-gas [mN/m]
298.15 K	47.79 ± 0.68
303.15 K	47.57 ± 0.67
308.15 K	47.25 ± 0.67
313.15 K	47.1 ± 0.67
318.15 K	46.4 ± 0.66

CCCCCCCO [heptan-1-ol]
Conditions	surface tension liquid-gas [mN/m]
[1], 298.15 K	26.38 ± 0.42

Conditions	mass density [kg/m3]
[1], 298.15 K, Vibrating tube method	818.11 ± 0.81

CCCCCCO [hexan-1-ol]
[1], 298.15 K
Conditions	mass density [kg/m3]	surface tension liquid-gas [mN/m]
–	815.02 ± 0.98	25.69 ± 0.42

CCCCCCO [hexan-1-ol] + OCCO
surface tension liquid-gas [mN/m], [2]
Conditions	298.15 K	303.15 K	308.15 K	313.15 K	318.15 K
x1 = 0.0429	32.5 ± 0.52	32.81 ± 0.49	32.68 ± 0.49	31.55 ± 0.48	31.38 ± 0.52
x1 = 0.1009	29.07 ± 0.45	29.49 ± 0.46	29.34 ± 0.46	29.27 ± 0.45	28.97 ± 0.45
x1 = 0.2761	28 ± 0.44	27.47 ± 0.44	27.31 ± 0.43	27.15 ± 0.43	26.91 ± 0.43
x1 = 0.3098	27.9 ± 0.44	27.32 ± 0.43	27.19 ± 0.43	27.02 ± 0.43	26.8 ± 0.43
x1 = 0.35	27.38 ± 0.44	27.12 ± 0.43	26.98 ± 0.43	26.81 ± 0.43	26.63 ± 0.43
x1 = 0.3942	27.32 ± 0.43	26.98 ± 0.43	26.83 ± 0.43	26.68 ± 0.43	26.47 ± 0.43
x1 = 0.4468	27.24 ± 0.43	26.78 ± 0.43	26.63 ± 0.43	26.47 ± 0.43	26.31 ± 0.42
x1 = 0.5079	27.03 ± 0.43	26.48 ± 0.43	26.35 ± 0.42	26.17 ± 0.42	25.97 ± 0.42
x1 = 0.5405	26.82 ± 0.43	26.38 ± 0.42	26.25 ± 0.42	26.07 ± 0.42	25.88 ± 0.42
x1 = 0.6061	26.71 ± 0.43	26.17 ± 0.42	26.01 ± 0.42	25.85 ± 0.42	25.67 ± 0.42
x1 = 0.6452	26.62 ± 0.43	25.97 ± 0.42	25.78 ± 0.42	25.65 ± 0.42	25.48 ± 0.42
x1 = 0.6897	26.51 ± 0.43	25.75 ± 0.42	25.58 ± 0.42	25.38 ± 0.41	25.21 ± 0.41
x1 = 0.7407	26.43 ± 0.43	25.48 ± 0.42	25.3 ± 0.41	25.16 ± 0.41	24.99 ± 0.41
x1 = 0.8	26.34 ± 0.43	25.38 ± 0.41	25.19 ± 0.41	25.02 ± 0.41	24.81 ± 0.41
x1 = 0.8333	26.28 ± 0.43	25.25 ± 0.41	25.17 ± 0.41	24.98 ± 0.41	24.75 ± 0.41
x1 = 0.9091	26.22 ± 0.43	25.16 ± 0.41	24.97 ± 0.41	24.78 ± 0.41	24.56 ± 0.41
x1 = 0.9524	26.16 ± 0.42	25.02 ± 0.41	24.81 ± 0.41	24.61 ± 0.41	24.45 ± 0.4

CCCCCO [pentan-1-ol]
[1], 298.15 K
Conditions	mass density [kg/m3]	surface tension liquid-gas [mN/m]
–	811.1 ± 0.99	24.89 ± 0.41
